This note sets out measurements from patent US11040976B2, “Substrate selective inhibitors of insulin-degrading enzyme (IDE) and uses thereof” (President and Fellows of Harvard College, priority 2015, dated 2021).

For assay [1], the target named is T1, IDE (R&D), substrate glucagon (Homo sapiens, UniProt P14735).
T1 construct: recombinant human IDE42-1019 (R&D Systems); purchased R&D
T1 sequence (P14735 42-1019): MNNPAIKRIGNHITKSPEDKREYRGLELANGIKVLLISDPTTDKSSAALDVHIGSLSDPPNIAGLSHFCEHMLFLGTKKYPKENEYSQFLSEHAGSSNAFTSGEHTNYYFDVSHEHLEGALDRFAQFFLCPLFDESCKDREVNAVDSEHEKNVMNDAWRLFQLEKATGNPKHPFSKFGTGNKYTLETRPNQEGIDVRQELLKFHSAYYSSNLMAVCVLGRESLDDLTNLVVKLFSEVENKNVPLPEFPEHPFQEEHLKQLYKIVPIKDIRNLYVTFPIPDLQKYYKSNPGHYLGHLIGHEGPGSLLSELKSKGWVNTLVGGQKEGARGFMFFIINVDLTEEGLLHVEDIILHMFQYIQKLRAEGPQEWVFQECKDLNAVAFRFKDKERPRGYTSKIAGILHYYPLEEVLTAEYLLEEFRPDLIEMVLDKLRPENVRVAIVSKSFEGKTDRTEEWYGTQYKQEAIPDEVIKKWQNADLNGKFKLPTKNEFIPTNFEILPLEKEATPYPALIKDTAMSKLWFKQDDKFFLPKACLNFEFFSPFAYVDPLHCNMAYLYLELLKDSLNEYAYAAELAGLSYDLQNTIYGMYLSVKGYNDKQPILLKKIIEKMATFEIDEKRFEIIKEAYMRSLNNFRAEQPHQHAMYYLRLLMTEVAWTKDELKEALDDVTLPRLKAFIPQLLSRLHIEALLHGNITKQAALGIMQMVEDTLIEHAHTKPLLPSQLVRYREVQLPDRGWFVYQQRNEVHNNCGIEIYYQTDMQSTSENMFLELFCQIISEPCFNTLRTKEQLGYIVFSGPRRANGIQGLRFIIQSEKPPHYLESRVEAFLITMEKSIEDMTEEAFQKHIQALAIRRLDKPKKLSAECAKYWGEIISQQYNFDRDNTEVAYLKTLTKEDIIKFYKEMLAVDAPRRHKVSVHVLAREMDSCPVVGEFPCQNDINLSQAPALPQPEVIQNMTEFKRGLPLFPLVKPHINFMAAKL
Description: HTRF assay for IDE-mediated degradation of glucagon. Type of assay: biochemical. The settings on record: compounds 67 μM, 0° C. for 10 minutes, versus DMSO alone, FIG. 5. The procedure:
A solution of 0.05 μg/mL IDE (R&D) in “Diluent #5” (CisBio, 24 μL) was transferred to a 200 μL tube strip, and combined with 1 μL of each inhibitor (10 mM in DMSO, or as a 3-fold dilution series). […] This procedure was optimized to result in ˜75% degradation of glucagon. The reaction was terminated by 1 μL of inhibitor Ii1 (5 μM) and chilled on ice. The remaining glucagon was quantified using 10 μL of the quenched enzymatic reaction using the sensitive-range protocol Homogeneous Time-Resolved FRET Glucagon assay (CisBio® 62GLCPEF, see FIG. 3) in 20 μL total volume according to the manufacturer's instructions (384 well-plate Greiner 784904 non-binding). Fluorescence was measured using a Tecan M1000Pro plate reader (excitation=340 nm, emission=665 and 620 nm, lag time=60 μs) according the assay manufacturer's recommendations. Blank wells and glucagon standard curve were included in the assay.
FIG. 4 compares the determined endpoint for insulin degradation with of glucagon degradation for a DMSO control, 6bK at 10 μM, and exemplary compounds of the invention at concentrations of 67 μM.
The HTRF endpoint assay for insulin and glucagon was performed over a range of concentrations for several potential inhibitors and for 6bK.
In general terms: Time-resolved FRET reads energy transfer from a long-lived donor to a nearby acceptor.

Assay [2] has as its target T2, recombinant human IDE42-1019 (Homo sapiens, UniProt P14735).
T2 construct: recombinant human IDE42-1019 (R&D Systems); purchased R&D Systems
T2 sequence (P14735 42-1019): T1 sequence (P14735 42-1019)
Description: Protease assay with fluorogenic peptide substrate Mca-[…](Dnp)-OH. The class given is biochemical. Particulars: fluorogenic peptide Mca-RPPGFSAFK(Dnp)-OH; for IC50: apparent IC50 for compounds with submaximal inhibition, read-out: IC50 (μM) Proteolysis; for Emax: plateau at high inhibitor concentration, read-out: Imax (%) Proteolysis (inhibition maximum).

In assay [3] the target is T3, Human N-His6-IDE42-1019 (E. coli expressed) (Homo sapiens, UniProt P14735).
T3 construct: Human N-His6-IDE42-1019 (E. coli expressed); made in house; host or cells: E. coli (Rosetta 2 (DE3) pLysS, plasmid pTrcHis-A)
T3 sequence (P14735 42-1019): T1 sequence (P14735 42-1019)
Briefly: Fluorescence anisotropy high-throughput screening assay (displacement of probe FL-6b). Type of assay: binding. The settings on record: final compound concentration 20 μM (6bK control 1 μM); values without asterisk. The procedure:
The fluorescence anisotropy screening method and probe FL-6b are described in PCT application PCT/US2014/064322, incorporated herein by reference.
Human N-His6-IDE42-1019 (E. coli expressed) was mixed with fluorescein-labeled macrocycle FL-6b:
[drawing 802] in 50 mM Tris buffer pH 8.0, with 1 M NaCl, at 25° C. Optimum signal was obtained using a mixture of […] probe FL-6b and 0.5 μM IDE. The “diversity-oriented (DOS) synthesis informer set” compound plates were pinned onto 384-well plates containing the enzyme-probe mixture (50 μL/well). The azetidine screen was pre-printed on 384-well plates and the enzyme-probe mixture was added (50 μL/well). The final compound concentration was 20 μM. IDE inhibitor 6bK was used as a positive control at a final concentration of 1 μM. After 30 minutes of equilibration, the increase in fluorescence anisotropy was recorded using an EnVision spectrophotometer (excitation 492 nm, emission 523 nm). The fluorescence anisotropy was independently measured twice for each screened compound. The Z-scores for each pair of measurements are plotted in FIG. 1A (DOS informer set) and FIG. 1B (azetidines), and average Z-scores are listed for exemplary compounds in Table E1.
Z-scores were calculated based on the raw anisotropy measured for each well according to Eq. 1, wherein x is the raw anisotropy value of the well, μ is the mean of the anisotropy of the negative control wells (DMSO) for the plate, and σ is the standard deviation in anisotropy of the negative control wells (DMSO) for the plate.
(In fluorescence polarisation assays a small probe gives low polarisation when free and higher when bound to something large.)

A value given as a limit tells only on which side of the number the result lay.

The term IC50 denotes the concentration needed to halve the response being measured.

For `Cc1ccccc1-c1ccc([C@H]2[C@H](CO)N3C(=O)CN(C(=O)NC4CCCC4)C[C@@H]23)cc1` [compound 504], the “initial rates of glucagon cleavage” value in assay [1] was “enhanced”. Also, the IC50 in assay [2] worked out at 0.8 µM. In assay [3], the “Average Z-score (Fluorescence anisotropy)” value (from here on “Average Z-score”) is listed as −20.82.
With `CCCNC(=O)N1CC(=O)N2[C@H](CO)[C@@H](c3ccc(-c4cccc(C)c4)cc3)[C@@H]2C1` [compound 779], the “initial rates of glucagon cleavage” value in assay [1] is given as “reduced”. Besides, in assay [2], the IC50 is 0.8 µM and the Emax stood at 60%. Also, the “Average Z-score” value in assay [3] is −22.36.
Turning to `Cc1ccccc1-c1ccc([C@H]2[C@@H](CO)N3CCCCN(C(=O)NC4CCCC4)C[C@H]23)cc1` [compound 255], the Emax in assay [2] came out at 50%. Further, in assay [3], the “Average Z-score” value is −17.33.
Regarding `Cc1ccccc1-c1ccc([C@H]2[C@@H](CO)N3CCCCN(S(=O)(=O)c4cn(C)cn4)C[C@H]23)cc1` [compound 736], in assay [2], the IC50 was 2.5 µM and the Emax was found to be 35%. In assay [3], the “Average Z-score” value was −16.6.
Regarding `Cc1cccc(-c2ccc([C@@H]3[C@@H](CO)N4CCCCN(CC5CC5)C[C@@H]34)cc2)c1` [compound 837], in assay [2], the IC50 is above 100 µM. Moreover, the “Average Z-score” value in assay [3] is −2.88.
With `Cc1ccccc1-c1ccc([C@H]2[C@@H](CO)N3CCCCN(C(=O)c4cccnc4)C[C@H]23)cc1` [compound 106], in assay [2], the Emax was 80%. Also, the “Average Z-score” value in assay [3] is listed as −16.48.
Regarding `Cc1cccc(-c2ccc([C@@H]3[C@@H](CO)N4CCCCN(Cc5cncnc5)C[C@@H]34)cc2)c1` [compound 654], the IC50 in assay [2] was above 100 µM. Also, in assay [3], the “Average Z-score” value is given as −6.65.
`Cc1ccccc1-c1ccc([C@H]2[C@@H](CO)N3CCCCN(C(=O)Nc4ccc(F)cc4)C[C@@H]23)cc1` [compound 226]: the Emax in assay [2] turned out to be 30%. Besides, in assay [3], the “Average Z-score” value is recorded as −1.67.
The like results for `Cc1ccccc1-c1ccc([C@H]2[C@H](CO)N3C(=O)CN(C(=O)Cc4ccccn4)C[C@@H]23)cc1` [compound 321] were, in that order, 50% and −17.72.
The like results for `Cc1cccc(-c2ccc([C@H]3[C@@H](CO)N4CCCCN(C(=O)c5ccncc5)C[C@H]34)cc2)c1` [compound 836] were, in that order, 60% and −18.28.
On to `Cc1cccc(-c2ccc([C@@H]3[C@@H](CO)N4C(=O)CN(C(=O)NC5CCCCC5)C[C@@H]34)cc2)c1` [compound 904], for which the IC50 in assay [2] was above 5 µM. Moreover, the “Average Z-score” value in assay [3] is on record as −16.59.
For the compound `Cc1ccccc1-c1ccc([C@@H]2[C@@H](CO)N3CCCCN(S(=O)(=O)c4ccc(F)cc4)C[C@@H]23)cc1` [compound 217], the Emax in assay [2] was determined as 40%. In assay [3], the “Average Z-score” value is −17.51.
For `Cc1ccccc1-c1ccc([C@@H]2[C@@H](CO)N3CCCCN(S(C)(=O)=O)C[C@@H]23)cc1` [compound 591], the “initial rates of glucagon cleavage” value in assay [1] is listed as “enhanced”. In addition, in assay [2], the IC50 was determined as 1.5 µM and the Emax came out at 40%. In addition, in assay [3], the “Average Z-score” value is reported as −17.90.
Take `Cc1ccccc1-c1ccc(C2C3CN(Cc4cocn4)CC2N3)cc1` (stereo not drawn) [C9]: in assay [2], the half-maximal inhibitory concentration (IC50) was determined as 25 µM and the Emax is above 60%. In addition, in assay [3], the “Average Z-score” value is on record as −3.01.
For `Cc1ccccc1-c1ccc(C2C3CN(S(=O)(=O)c4cn(C)cn4)CC2N3)cc1` (stereo not drawn) [C2], in that order: 7 µM, 50% and −16.62.
With `O=C(c1ccccn1)N1CC(=O)N2[C@@H](CO)[C@@H](c3ccc(C#Cc4ccccc4)cc3)[C@@H]2C1` [compound 479], in assay [2], the half-maximal inhibitory concentration (IC50) is below 10 µM and the Emax was around 100%. Moreover, the “Average Z-score” value in assay [3] is recorded as −19.91.
The like results for `O=C(C1CCOCC1)N1CC(=O)N2[C@H](CO)[C@H](c3ccc(C#Cc4cccc(F)c4)cc3)[C@H]2C1` [compound 142] were, in that order, 6 µM, around 100% and −19.27.
The like results for `Cc1ccccc1-c1ccc([C@@H]2[C@H](CO)N3CCCCN(C(=O)NC4CCCC4)C[C@@H]23)cc1` [compound 932] were, in that order, above 20 µM, 90% and −19.01.
Regarding `Cc1ccccc1-c1ccc([C@H]2[C@@H](CO)N3CCCCN(S(=O)(=O)Cc4ccccc4)C[C@@H]23)cc1` [compound 236], the IC50 in assay [2] was above 200 µM. Also, in assay [3], the “Average Z-score” value is −1.64.
Turning to `Cc1cccc(-c2ccc([C@@H]3[C@@H](CO)N4C(=O)CN(C(=O)c5cnccn5)C[C@@H]34)cc2)c1` [compound 653], in assay [2], the Emax was determined as 90%. Also, the “Average Z-score” value in assay [3] is −17.51.
For the compound `Cc1cccc(-c2ccc([C@@H]3[C@H]4CN(C(=O)c5ccncc5)CCCCN4[C@H]3CO)cc2)c1` [compound 316], the IC50 in assay [2] is above 10 µM. Further, the “Average Z-score” value in assay [3] is −16.96.
In the case of `COc1ccccc1-c1ccc(C2C3CN(C(=O)c4cccnc4)CC2N3)cc1` (stereo not drawn) [C4], in assay [2], the IC50 came out at 7.5 µM and the Emax was found to be 70%. In addition, the “Average Z-score” value in assay [3] was −13.76.
For the compound `CCS(=O)(=O)N1CCCCN2[C@H](CO)[C@@H](c3ccc(-c4ccccc4C)cc3)[C@@H]2C1` [compound 416], the Emax in assay [2] stood at 60%. Besides, the “Average Z-score” value in assay [3] was −18.29.
Consider `Cc1cccc(-c2ccc([C@@H]3[C@H](CO)N4CCCCN(S(=O)(=O)c5cn(C)cn5)C[C@@H]34)cc2)c1` [compound 795], for which, in assay [2], the Emax was determined as 40%. Besides, the “Average Z-score” value in assay [3] is −19.52.
